Reference: US10253052B2, “HBED-bisphosphonates, radiometal conjugates and their use as theranostic agents” (Five Eleven Pharma Inc., priority 2015, dated 2019)

What was measured:
[1] = In vivo biodistribution in mice; set-up: species or system normal CD-1 male mice; details: iv
Protocol: Biodistribution experiments were performed by intravenously administering ^68Ga labeled 1a-h, 2, 3, BPAMD, and [^18F]NaF into normal, healthy male CD-1 mice (25-30 g). The injection activity was 20-30 μCi/animal. […] Organs of interest were harvested, weighed, and counts of radioactivity were measured by a gamma counter. The biodistribution of each sample was calculated as a percentage of the injected dose per gram of wet tissue weight (% ID/g). Tibia and femur bones were harvested and counted as bone samples.

[2] = In vitro binding to hydroxyapatite; details: 20 mg hydroxyapatite in saline, 10 min at room temperature
Protocol: Hydroxyapatite (20 mg, Sigma-Aldrich, reagent grade powder) was incubated in isotonic saline (1 mL) for 24 h. Subsequently, either ^68Ga labeled 1a-h, 2, 3, BPAMD, or [^18F]NaF (1 μCi) was added to the hydroxyapatite suspension. After vortexing for 10 seconds, the suspension was incubated for 10 min at room temperature. The samples were then centrifuged at 10,000 rpm for 3 min and the supernatant was removed. The hydroxyapatite fraction was washed twice with saline (1 mL). Radioactivity in the combined supernatants and the hydroxyapatite fraction was measured using a gamma counter. The proportion of the ^68Ga complex binding to hydroxyapatite was determined as percent of ^68Ga absorbed to hydroxyapatite.

O=C([O-])CN(CCN(CC(=O)[O-])Cc1cc(CCC(=O)N[C@@H](CC(=O)O)C(=O)O)ccc1[O-])Cc1cc(CCC(=O)NC(P(=O)(O)O)P(=O)(O)O)ccc1[O-].[68Ga+3] [[^68Ga]1e]
bone to blood ratio ([1]; 2 min): 1 | bone to muscle ratio ([1]; 2 min): 5 | Biodistribution: Blood ([1]; 2 min post injection): 8.31 ± 0.57 % dose/g | Biodistribution: Bone ([1]; 2 min post injection): 8.82 ± 0.77 % dose/g | Biodistribution: Brain ([1]; 2 min post injection): 0.20 ± 0.04 % dose/g | Biodistribution: Heart ([1]; 2 min post injection): 2.55 ± 0.06 % dose/g | Biodistribution: Kidney ([1]; 2 min post injection): 24.8 ± 3.02 % dose/g | Biodistribution: Liver ([1]; 2 min post injection): 1.90 ± 0.13 % dose/g | Biodistribution: Lung ([1]; 2 min post injection): 4.00 ± 0.20 % dose/g | Biodistribution: Muscle ([1]; 2 min post injection): 1.71 ± 0.19 % dose/g | Biodistribution: Pancreas ([1]; 2 min post injection): 1.27 ± 0.07 % dose/g | Biodistribution: Skin ([1]; 2 min post injection): 2.54 ± 0.26 % dose/g | Biodistribution: Spleen ([1]; 2 min post injection): 1.72 ± 0.19 % dose/g | bone to blood ratio ([1]; 30 min): 29 | bone to muscle ratio ([1]; 30 min): 67 | Biodistribution: Blood ([1]; 30 min (0.5 hr) post injection): 0.57 ± 0.12 % dose/g | Biodistribution: Bone ([1]; 30 min (0.5 hr) post injection): 16.5 ± 0.56 % dose/g | Biodistribution: Brain ([1]; 30 min (0.5 hr) post injection): 0.02 ± 0.01 % dose/g | Biodistribution: Heart ([1]; 30 min (0.5 hr) post injection): 0.26 ± 0.04 % dose/g | Biodistribution: Kidney ([1]; 30 min (0.5 hr) post injection): 2.26 ± 0.27 % dose/g | Biodistribution: Liver ([1]; 30 min (0.5 hr) post injection): 0.27 ± 0.02 % dose/g | Biodistribution: Lung ([1]; 30 min (0.5 hr) post injection): 0.42 ± 0.08 % dose/g | Biodistribution: Muscle ([1]; 30 min (0.5 hr) post injection): 0.25 ± 0.03 % dose/g | Biodistribution: Pancreas ([1]; 30 min (0.5 hr) post injection): 0.17 ± 0.05 % dose/g | Biodistribution: Skin ([1]; 30 min (0.5 hr) post injection): 0.86 ± 0.22 % dose/g | Biodistribution: Spleen ([1]; 30 min (0.5 hr) post injection): 0.19 ± 0.02 % dose/g | bone to blood ratio ([1]; 60 min): 138 | bone to muscle ratio ([1]; 60 min): 258 | Biodistribution: Blood ([1]; 60 min (1 hr) post injection): 0.11 ± 0.02 % dose/g | Biodistribution: Bone ([1]; 60 min (1 hr) post injection): 14.9 ± 1.45 % dose/g | Biodistribution: Brain ([1]; 60 min (1 hr) post injection): 0.01 ± 0.00 % dose/g | Biodistribution: Heart ([1]; 60 min (1 hr) post injection): 0.08 ± 0.00 % dose/g | Biodistribution: Kidney ([1]; 60 min (1 hr) post injection): 2.12 ± 0.55 % dose/g | Biodistribution: Liver ([1]; 60 min (1 hr) post injection): 0.14 ± 0.01 % dose/g | Biodistribution: Lung ([1]; 60 min (1 hr) post injection): 0.15 ± 0.01 % dose/g | Biodistribution: Muscle ([1]; 60 min (1 hr) post injection): 0.06 ± 0.00 % dose/g | Biodistribution: Pancreas ([1]; 60 min (1 hr) post injection): 0.06 ± 0.01 % dose/g | Biodistribution: Skin ([1]; 60 min (1 hr) post injection): 0.12 ± 0.01 % dose/g | Biodistribution: Spleen ([1]; 60 min (1 hr) post injection): 0.09 ± 0.01 % dose/g | bone to blood ratio ([1]; 120 min): 230 | bone to muscle ratio ([1]; 120 min): 411 | Biodistribution: Blood ([1]; 120 min post injection): 0.08 ± 0.02 % dose/g | Biodistribution: Bone ([1]; 120 min post injection): 17.6 ± 2.61 % dose/g | Biodistribution: Brain ([1]; 120 min post injection): 0.01 ± 0.01 % dose/g | Biodistribution: Heart ([1]; 120 min post injection): 0.06 ± 0.01 % dose/g | Biodistribution: Kidney ([1]; 120 min post injection): 1.41 ± 0.28 % dose/g | Biodistribution: Liver ([1]; 120 min post injection): 0.14 ± 0.02 % dose/g | Biodistribution: Lung ([1]; 120 min post injection): 0.12 ± 0.02 % dose/g | Biodistribution: Muscle ([1]; 120 min post injection): 0.04 ± 0.01 % dose/g | Biodistribution: Pancreas ([1]; 120 min post injection): 0.04 ± 0.01 % dose/g | Biodistribution: Skin ([1]; 120 min post injection): 0.12 ± 0.03 % dose/g | Biodistribution: Spleen ([1]; 120 min post injection): 0.06 ± 0.01 % dose/g | Hydroxyapatite Binding (%) [2]: 95.8 ± 0.9%

O=C([O-])CN(CCN(CC(=O)[O-])Cc1cc(CCC(=O)N[C@@H](CCC(=O)O)C(=O)O)ccc1[O-])Cc1cc(CCC(=O)NC(P(=O)(O)O)P(=O)(O)O)ccc1[O-].[68Ga+3] [[^68Ga]1f]
bone to blood ratio ([1]; 2 min): 1 | bone to muscle ratio ([1]; 2 min): 4 | Biodistribution: Blood ([1]; 2 min post injection): 8.98 ± 0.68 % dose/g | Biodistribution: Bone ([1]; 2 min post injection): 8.62 ± 0.23 % dose/g | Biodistribution: Brain ([1]; 2 min post injection): 0.22 ± 0.00 % dose/g | Biodistribution: Heart ([1]; 2 min post injection): 3.53 ± 0.57 % dose/g | Biodistribution: Kidney ([1]; 2 min post injection): 24.7 ± 3.13 % dose/g | Biodistribution: Liver ([1]; 2 min post injection): 2.43 ± 0.27 % dose/g | Biodistribution: Lung ([1]; 2 min post injection): 5.01 ± 0.81 % dose/g | Biodistribution: Muscle ([1]; 2 min post injection): 2.10 ± 0.12 % dose/g | Biodistribution: Pancreas ([1]; 2 min post injection): 1.96 ± 0.15 % dose/g | Biodistribution: Skin ([1]; 2 min post injection): 2.62 ± 0.11 % dose/g | Biodistribution: Spleen ([1]; 2 min post injection): 2.20 ± 0.26 % dose/g | bone to blood ratio ([1]; 30 min): 33 | bone to muscle ratio ([1]; 30 min): 74 | Biodistribution: Blood ([1]; 30 min (0.5 hr) post injection): 0.52 ± 0.05 % dose/g | Biodistribution: Bone ([1]; 30 min (0.5 hr) post injection): 16.8 ± 1.66 % dose/g | Biodistribution: Brain ([1]; 30 min (0.5 hr) post injection): 0.02 ± 0.00 % dose/g | Biodistribution: Heart ([1]; 30 min (0.5 hr) post injection): 0.23 ± 0.01 % dose/g | Biodistribution: Kidney ([1]; 30 min (0.5 hr) post injection): 2.05 ± 0.52 % dose/g | Biodistribution: Liver ([1]; 30 min (0.5 hr) post injection): 0.28 ± 0.02 % dose/g | Biodistribution: Lung ([1]; 30 min (0.5 hr) post injection): 0.42 ± 0.03 % dose/g | Biodistribution: Muscle ([1]; 30 min (0.5 hr) post injection): 0.23 ± 0.01 % dose/g | Biodistribution: Pancreas ([1]; 30 min (0.5 hr) post injection): 0.15 ± 0.01 % dose/g | Biodistribution: Skin ([1]; 30 min (0.5 hr) post injection): 0.49 ± 0.04 % dose/g | Biodistribution: Spleen ([1]; 30 min (0.5 hr) post injection): 0.22 ± 0.03 % dose/g | bone to blood ratio ([1]; 60 min): 78 | bone to muscle ratio ([1]; 60 min): 222 | Biodistribution: Blood ([1]; 60 min (1 hr) post injection): 0.18 ± 0.04 % dose/g | Biodistribution: Bone ([1]; 60 min (1 hr) post injection): 14.4 ± 3.01 % dose/g | Biodistribution: Brain ([1]; 60 min (1 hr) post injection): 0.01 ± 0.00 % dose/g | Biodistribution: Heart ([1]; 60 min (1 hr) post injection): 0.11 ± 0.01 % dose/g | Biodistribution: Kidney ([1]; 60 min (1 hr) post injection): 1.59 ± 0.72 % dose/g | Biodistribution: Liver ([1]; 60 min (1 hr) post injection): 0.20 ± 0.02 % dose/g | Biodistribution: Lung ([1]; 60 min (1 hr) post injection): 0.21 ± 0.01 % dose/g | Biodistribution: Muscle ([1]; 60 min (1 hr) post injection): 0.06 ± 0.00 % dose/g | Biodistribution: Pancreas ([1]; 60 min (1 hr) post injection): 0.08 ± 0.02 % dose/g | Biodistribution: Skin ([1]; 60 min (1 hr) post injection): 0.15 ± 0.01 % dose/g | Biodistribution: Spleen ([1]; 60 min (1 hr) post injection): 0.12 ± 0.04 % dose/g | bone to blood ratio ([1]; 120 min): 180 | bone to muscle ratio ([1]; 120 min): 374 | Biodistribution: Blood ([1]; 120 min post injection): 0.09 ± 0.01 % dose/g | Biodistribution: Bone ([1]; 120 min post injection): 16.7 ± 1.12 % dose/g | Biodistribution: Brain ([1]; 120 min post injection): 0.01 ± 0.01 % dose/g | Biodistribution: Heart ([1]; 120 min post injection): 0.07 ± 0.01 % dose/g | Biodistribution: Kidney ([1]; 120 min post injection): 1.08 ± 0.20 % dose/g | Biodistribution: Liver ([1]; 120 min post injection): 0.19 ± 0.01 % dose/g | Biodistribution: Lung ([1]; 120 min post injection): 0.13 ± 0.01 % dose/g | Biodistribution: Muscle ([1]; 120 min post injection): 0.04 ± 0.01 % dose/g | Biodistribution: Pancreas ([1]; 120 min post injection): 0.04 ± 0.00 % dose/g | Biodistribution: Skin ([1]; 120 min post injection): 0.09 ± 0.01 % dose/g | Biodistribution: Spleen ([1]; 120 min post injection): 0.08 ± 0.01 % dose/g | Hydroxyapatite Binding (%) [2]: 96.4 ± 1.2%
